Patent US7846963B2, “2-oxo-heterocyclic compounds and the pharmaceutical compositions comprising the same” (Korea Research Institute of Bioscience and Biotechnology, priority 2003, dated 2010)

What was measured:
[1] = tested on: production of TNF-alpha in RAW 264.7 cells; test: Inhibition of TNF-alpha production in LPS-treated RAW 264.7 cells, ELISA of culture supernatant; format: cell-based, mouse; set-up: TNF-alpha inhibition: scale not given here; settings: Table 23, LPS 0.3 μg/ml, 24 hours, compounds up to 10 μM, IC50 unit not given
Method: To test the inhibiting activity of the compounds prepared from above Examples on the production of TNF-alpha, the concentration of TNF-alpha in the cell supernatant was measured.
(§1) Each 200 μl of RAW 264.7 cells (ATCC, USA), a mouse macrophage cell line was seeded onto each well of 96-well microtiter plate (Nunc, Sweden) to the concentration ranging from 1×10^6 cells/ml to 5×10^6 cells/ml, and incubated in DMEM (Dulbeco's modified eagles medium) media containing 5% FBS (fetal bovine serum) at 37° C. in 5% CO2 incubator.
(§2) Various concentrations of the compounds of the present invention ranging from […] to 10 μM and LPS (Sigma, USA) in the final concentration of 0.3 μg/ml were treated to activated cell simultaneously. The treated cells were cultured at 37° C. for 24 hours in 5% CO2 incubator and the cultured cells were collected after the cultivation
And then the concentration of TNF-alpha secreted from the culture supernatant of RAW 264.7 cells was determined by ELISA according to the manufacture's instruction (R&D Systems, Minneapolis, Minn.).
The result was shown in Table 23 (AA: IC50's<1, A: IC50's<5, B: IC50's<10, C: IC50's>10).

[2] = tested on: production of nitric oxide (NO) in RAW 264.7 cells; test: Inhibition of NO (nitrite) production in LPS-activated RAW 264.7 macrophages, Griess reagent; format: cell-based, mouse; settings: Table 22, cited in b622 as nitrite/NO production result, LPS 0.3 μg/ml, 24 hours, compounds up to 10 μM, IC50 unit not given
Method: To test the inhibiting activity of the compounds prepared from above Examples 1 to 6 on the production of nitric oxide (NO) caused by activated macrophage by lipopolysaccharide (LPS), the amount of accumulated […] in the cells was determined as an indicator of NO production in the medium.
as §1
as §2, with “μg/ml to activate the cell” for “μg/ml”, “activate the” for “activated”, “cultivation.” for “cultivation”
And then, to the collected cell culture, an equal volume of Griess reagent (1% sulfanilamide, 0.1% naphthylethylenediamine dihydrochloride, and 2% phosphoric acid) was added and the culture was incubated at room temperature for 10 mins. The amount of nitrite production was determined by measuring the absorbance at 540 nm versus a NaNO2 standard curve. […]

SMILES	TNF-alpha inhibition [1]	NO production inhibition [2]
Cc1ccc(CCN2CC=C(CCC(=O)NO)C2=O)cc1 [Example 39, N-hydroxy-3-[2-oxo-1-(2-p-tolyl-ethyl)-2,5-dihydro-1H-pyrrol-3-yl]-propionamide]	AAA	AAA
O=C(CCC1=CCN(CCCc2ccc3ccccc3c2)C1=O)NO [Example 56, N-hydroxy-3-[1-(3-naphthalene-2-yl-propyl)-2-oxo-2,5-dihydro-1H-pyrrol-3-yl]-propionamide]	AAA	AAA
